Columns and labels:
[1] = Whole-body dynamic PET in normal mice; conditions: for renal radioactivity level (RRL) / RRL relative to [64Cu]Cu-cyclam-RaftRGD: 57.5 min p.i.; for renal radioactivity level (RRL) / radioactivity in the bladder: 2.92–4.26 MBq/0.3 nmol i.v.; for radioactivity in the bladder: by 1 h p.i.
[2] = tested on: renal brush border enzymes (RBBMVs); assay: Enzyme inhibition study of RBBMV-mediated cleavage of the GFK linkage; format: biochemical, rat; conditions: 1 mM inhibitor; for inhibition of release of [64Cu]Cu-cyclam-G from [64Cu]Cu-cyclam-GFK(Bz) (pilot): RBBMVs 3 mg/mL, 37 °C overnight, RP-HPLC; for inhibition of release of [64Cu]Cu-cyclam-G from [64Cu]Cu-cyclam-GFK(Bz) / inhibition of release of radiometabolite-X from [64Cu]Cu-cyclam-GFK(Bz): RBBMVs 10 mg/mL, 37 °C, 5 or 24 h, TLC
[3] = Pilot dynamic PET imaging of [64Cu]Cu-cyclam-G in normal mice
[4] = Urinary radiometabolite assay in normal mice; format: in vivo, mouse; conditions: for urinary radioactivity with tR consistent with [64Cu]Cu-cyclam-G: pilot, 13.3 MBq/12.4 nmol i.v., RP-HPLC
[5] = tested on: U87MG tumor-bearing mice; assay: PET imaging of U87MG tumor-bearing mice; format: in vivo, mouse; conditions: for rate of reduction in renal radioactivity level (PET): from 1 to 24 h p.i.
[6] = Ex vivo biodistribution study in normal mice; set-up: species or system mouse; conditions: 3 to 24 h p.i.
[7] = tested on: renal brush border membrane vesicles (RBBMVs); assay: Enzyme-mediated cleavage assay with RBBMVs; format: in vitro ADME, rat; conditions: 10 mg/mL RBBMVs, 37 °C, TLC; for release of [64Cu]Cu-cyclam-G upon incubation with RBBMVs: 10 min–24 h; for release of radiometabolite-X (% of the radioactivity): 24 h

Row | Compound | inhibition of release of [64Cu]Cu-cyclam-G from [64Cu]Cu-cyclam-GFK(Bz) [2] | inhibition of release of radiometabolite-X from [64Cu]Cu-cyclam-GFK(Bz) [2] | rate of reduction in renal radioactivity level (PET) [5] | urine radioactivity fraction as intact compound ([4]; urine 0–6 h p.i., TLC) | reduction of kidney radioactivity level [6] | reduction of liver radioactivity level [6] | release of [64Cu]Cu-cyclam-G upon incubation with RBBMVs [7] | release of radiometabolite-X (% of the radioactivity) [7] | further results
1 | [^64Cu]Cu-cyclam-Gly-Phe-OH [[^64Cu]Cu-cyclam-GF] |  |  |  |  |  |  |  |  | renal radioactivity level (RRL) [1]: 1.50 ± 0.81 %ID/g; radioactivity in the bladder [1]: > 70 %ID
2 | CC(C)C[C@H](NP(=O)(O)O[C@@H]1O[C@@H](C)[C@H](O)[C@@H](O)[C@H]1O)C(=O)N[C@@H](Cc1c[nH]c2ccccc12)C(=O)O [phosphoramidon] | nearly completely inhibited | barely inhibited |  |  |  |  |  |  | inhibition of release of [64Cu]Cu-cyclam-G from [64Cu]Cu-cyclam-GFK(Bz) (pilot) [2]: almost completely inhibited
3 | CC1(C)C[C@@H]1C(=O)N/C(=C\CCCCSC[C@H](N)C(=O)O)C(=O)O [cilastatin] | not inhibited | not inhibited |  |  |  |  |  |  | inhibition of release of [64Cu]Cu-cyclam-G from [64Cu]Cu-cyclam-GFK(Bz) (pilot) [2]: remained unaffected
4 | [^64Cu]Cu-cyclam-Gly-OH |  |  |  |  |  |  |  |  | reduction of renal uptake from peak ([3]; 1.5 to 57.5 min p.i.): 96.7%; renal uptake peak ([3]; 1.5 min p.i., ~7.4 MBq/2 nmol i.v.): 20.3 ± 2.9 %ID/g; renal uptake ([3]; 57.5 min p.i., ~7.4 MBq/2 nmol i.v.): 0.68 ± 0.02 %ID/g; ID excreted in urine ([3]; within 60 min after injection): more than 70 % of ID; renal radioactivity level (RRL) [1]: 1.14 ± 0.15 %ID/g; radioactivity in the bladder [1]: > 70 %ID; 0–6 h urinary radioactivity levels ([4]; normal mice, 7.4 MBq i.v., group values): 34.7 to 50.9 %ID
5 | C[C@@H]1NC(=O)[C@H](CCCCNC(=O)CO/N=C/C(=O)NCCCC[C@@H]2NC(=O)[C@@H](Cc3ccccc3)NC(=O)[C@H](CC(=O)O)NC(=O)CNC(=O)[C@H](CCCNC(=N)N)NC2=O)NC(=O)CNC(=O)[C@@H]2CCCN2C(=O)[C@H](CCCCNC(=O)CO/N=C/C(=O)NCCCC[C@@H]2NC(=O)[C@@H](Cc3ccccc3)NC(=O)[C@H](CC(=O)O)NC(=O)CNC(=O)[C@H](CCCNC(=N)N)NC2=O)NC(=O)[C@H](CCCCNC(=O)[C@H](CCCCN)NC(=O)[C@H](Cc2ccccc2)NC(=O)CNC(=O)CN2CCCNCCNCCCNCC2)NC(=O)[C@H](CCCCNC(=O)CO/N=C/C(=O)NCCCC[C@@H]2NC(=O)[C@@H](Cc3ccccc3)NC(=O)[C@H](CC(=O)O)NC(=O)CNC(=O)[C@H](CCCNC(=N)N)NC2=O)NC(=O)CNC(=O)[C@@H]2CCCN2C(=O)[C@H](CCCCNC(=O)CO/N=C/C(=O)NCCCC[C@@H]2NC(=O)[C@@H](Cc3ccccc3)NC(=O)[C@H](CC(=O)O)NC(=O)CNC(=O)[C@H](CCCNC(=N)N)NC2=O)NC1=O [[^64Cu]Cu-cyclam-GFK-RaftRGD, metal not drawn] |  |  | 73.0 ± 2.3% | 27.7 ± 2.4% | 61.1% | 28.0% | failed to release | 18.2% | RRL relative to [64Cu]Cu-cyclam-RaftRGD [1]: 2.98 fold; urine radioactivity fraction as radiometabolite-X ([64Cu]Cu-cyclam-GF) ([4]; urine 0–6 h p.i., TLC): 56.9 ± 2.0%
6 | C[C@@H]1NC(=O)[C@H](CCCCNC(=O)CO/N=C/C(=O)NCCCC[C@@H]2NC(=O)[C@@H](Cc3ccccc3)NC(=O)[C@H](CC(=O)O)NC(=O)CNC(=O)[C@H](CCCNC(=N)N)NC2=O)NC(=O)CNC(=O)[C@@H]2CCCN2C(=O)[C@H](CCCCNC(=O)CO/N=C/C(=O)NCCCC[C@@H]2NC(=O)[C@@H](Cc3ccccc3)NC(=O)[C@H](CC(=O)O)NC(=O)CNC(=O)[C@H](CCCNC(=N)N)NC2=O)NC(=O)[C@H](CCCCNC(=O)CN2CCCNCCNCCCNCC2)NC(=O)[C@H](CCCCNC(=O)CO/N=C/C(=O)NCCCC[C@@H]2NC(=O)[C@@H](Cc3ccccc3)NC(=O)[C@H](CC(=O)O)NC(=O)CNC(=O)[C@H](CCCNC(=N)N)NC2=O)NC(=O)CNC(=O)[C@@H]2CCCN2C(=O)[C@H](CCCCNC(=O)CO/N=C/C(=O)NCCCC[C@@H]2NC(=O)[C@@H](Cc3ccccc3)NC(=O)[C@H](CC(=O)O)NC(=O)CNC(=O)[C@H](CCCNC(=N)N)NC2=O)NC1=O [[^64Cu]Cu-cyclam-RaftRGD, [^64Cu]Cu-cyclam-RAFT-c(-RGDfK-)4, metal not drawn] |  |  | 43.0 ± 4.5% |  | 22.8% | 27.0% |  |  | 
7 | O=C(CN1CCCNCCNCCCNCC1)NCC(=O)N[C@@H](Cc1ccccc1)C(=O)N[C@@H](CCCCNC(=O)c1ccccc1)C(=O)O [[^64Cu]Cu-cyclam-GFK(Bz), [^64Cu]Cu-cyclam-GFK(benzoyl [Bz])-OH, metal not drawn] |  |  |  | 67.6 ± 3.4% |  |  | released the expected fragment | 43.7% | urinary radioactivity with tR consistent with [64Cu]Cu-cyclam-G ([4]; mouse urine 10 min p.i.): 5.9%; urinary radioactivity with tR consistent with [64Cu]Cu-cyclam-G ([4]; mouse urine 2 h p.i.): 13.8%; urine radioactivity fraction as [64Cu]Cu-cyclam-G ([4]; urine 0–6 h p.i., TLC): 27.2 ± 2.5%
8 | C[C@H](CS)C(=O)N1CCC[C@H]1C(=O)O [captopril] | partially inhibited | partially inhibited |  |  |  |  |  |  | 
9 | C[C@@H]1NC(=O)[C@H](CCCCNC(=O)CO/N=C/C(=O)NCCCC[C@@H]2NC(=O)[C@@H](Cc3ccccc3)NC(=O)[C@H](CC(=O)O)NC(=O)CNC(=O)[C@H](CCCNC(=N)N)NC2=O)NC(=O)CNC(=O)[C@@H]2CCCN2C(=O)[C@H](CCCCNC(=O)CO/N=C/C(=O)NCCCC[C@@H]2NC(=O)[C@@H](Cc3ccccc3)NC(=O)[C@H](CC(=O)O)NC(=O)CNC(=O)[C@H](CCCNC(=N)N)NC2=O)NC(=O)[C@H](CCCCNC(=O)CCNC(=O)CCNC(=O)CCNC(=O)[C@H](CCCCN)NC(=O)[C@H](Cc2ccccc2)NC(=O)CNC(=O)CN2CCCNCCNCCCNCC2)NC(=O)[C@H](CCCCNC(=O)CO/N=C/C(=O)NCCCC[C@@H]2NC(=O)[C@@H](Cc3ccccc3)NC(=O)[C@H](CC(=O)O)NC(=O)CNC(=O)[C@H](CCCNC(=N)N)NC2=O)NC(=O)CNC(=O)[C@@H]2CCCN2C(=O)[C@H](CCCCNC(=O)CO/N=C/C(=O)NCCCC[C@@H]2NC(=O)[C@@H](Cc3ccccc3)NC(=O)[C@H](CC(=O)O)NC(=O)CNC(=O)[C@H](CCCNC(=N)N)NC2=O)NC1=O [[^64Cu]Cu-cyclam-GFK(βA)3-RaftRGD, metal not drawn] |  |  | 75.6 ± 1.8% | much lower and poorly defined for quantification | 74.4% | 34% | failed to release | 22.9% | tumor uptake (PET) ([5]; U87MG tumor, 1–24 h p.i.): significantly higher than those of the GFK compound; RRL relative to [64Cu]Cu-cyclam-RaftRGD [1]: 2.57 fold; urine radioactivity fraction as radiometabolite-X ([64Cu]Cu-cyclam-GF) ([4]; urine 0–6 h p.i., TLC): 69.1 ± 4.5%
10 | NC(N)=NCCSCC(CS)C(=O)O (stereo not drawn) [mergetpa] | not inhibited | partially inhibited |  |  |  |  |  |  | 
